The target of one data set is MtbGyrase (Mycobacterium tuberculosis, UniProt P9WG45+P9WG47). The data set is classed as biochemical.
In data set [1] the test system is Mycobacterium tuberculosis H37Rv mc^26020. Kind of data set: MIC, broth microdilution. As to conditions: bleomycin susceptibility, value before the MIC shift. Format: cell-based. (In broth dilution the organism is exposed to a series of concentrations in liquid medium.)
Another data set concerns mouse. The experiment in a line: Toxicity in a mouse. The data set is classed as in vivo. As to conditions: intraperitoneally, 100 mg kg^−1, survival observed for 24 hours.
Another data set relates to E. coli WO153. The experiment in a line: Macromolecule incorporation assay. Format: cell-based, Escherichia coli. As to conditions: 8x MIC of evybactin.
In data set [2] the target is T1, M. tuberculosis gyrase (MtbGyrase) (Mycobacterium tuberculosis, UniProt P9WG45+P9WG47). The data set is classed as biochemical. As to conditions: no ATP.
Another data set addresses E. coli topo IV (Escherichia coli, UniProt P0AFI2+P20083). Kind of data set: Supercoil relaxation assay. Format: biochemical. As to conditions: 100 μM evybactin, 0–20 nM enzyme.
In data set [3] the test system is M. tuberculosis H37Rv mc^26020. The experiment in a line: Vitamin B12 competition assay. Format: cell-based, Mycobacterium tuberculosis. As to conditions: 1,000-fold molar excess of vitamin B12, 7 days, 37 °C.
The subject of data set [4] is commensal bacteria, including Lactobacillus sp. and Bacteroides sp. The experiment in a line: Activity against commensal bacteria. Format: cell-based.
Another data set deals with M. tuberculosis. The experiment in a line: Cell elongation, microscopy. The data set is classed as cell-based, Mycobacterium tuberculosis.
Data set [5] has as its system M. tuberculosis H37Rv mc^26020. The experiment in a line: Time-dependent killing. Format: cell-based, Mycobacterium tuberculosis.
The next data set addresses E. coli gyrase (Escherichia coli, UniProt P0AES4+P0AES6). The experiment in a line: Supercoiling assay. Format: biochemical. The following applies: 100 μM evybactin, 0–20 nM enzyme, strong cleavage visible at 5 nM enzyme.
Data set [6] has as its target T1, M. tuberculosis gyrase (MtbGyrase). The experiment in a line: Supercoiling assay. The data set is classed as biochemical.

Data on 3 compounds can be found in paper PMC9844538 (Nature chemical biology, 2022).

Starred links: 1 amine or outer side, 2 acyl side, 3 side chain; linkers in the order of their positions; H or OH if unused. Positions of bridges follow the written chain, without caps; N, C: chain ends. Non-standard residues stand in square brackets, D forms with d. Residues, ends and D or L forms follow the SMILES beside them. *: point of attachment. βAsp = O=C(O)[C@H](CC(=O)[*:2])N[*:1]; His(π-Me) = Cn1cncc1C[C@H](N)C(=O)O; For = O=C*

T1 sequence (P9WG45 whole entry, looked up): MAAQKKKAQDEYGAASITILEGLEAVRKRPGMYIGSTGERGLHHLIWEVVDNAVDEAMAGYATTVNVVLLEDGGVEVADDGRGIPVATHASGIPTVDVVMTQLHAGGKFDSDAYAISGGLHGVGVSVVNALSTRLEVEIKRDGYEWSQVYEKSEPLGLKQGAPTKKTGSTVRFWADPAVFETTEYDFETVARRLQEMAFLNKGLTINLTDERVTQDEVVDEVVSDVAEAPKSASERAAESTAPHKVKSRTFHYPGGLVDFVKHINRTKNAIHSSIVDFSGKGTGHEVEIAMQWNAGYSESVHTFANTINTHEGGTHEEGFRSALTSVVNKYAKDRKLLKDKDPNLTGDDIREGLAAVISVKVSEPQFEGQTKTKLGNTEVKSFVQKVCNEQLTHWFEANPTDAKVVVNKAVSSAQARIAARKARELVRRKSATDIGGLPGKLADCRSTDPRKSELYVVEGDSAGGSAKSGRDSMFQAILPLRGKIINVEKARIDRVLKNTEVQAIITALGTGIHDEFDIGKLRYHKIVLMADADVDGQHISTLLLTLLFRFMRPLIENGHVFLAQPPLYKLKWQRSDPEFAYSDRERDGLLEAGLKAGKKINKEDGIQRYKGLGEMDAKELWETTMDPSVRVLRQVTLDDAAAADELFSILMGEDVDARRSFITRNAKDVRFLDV
T1 sequence (P9WG47 whole entry, looked up): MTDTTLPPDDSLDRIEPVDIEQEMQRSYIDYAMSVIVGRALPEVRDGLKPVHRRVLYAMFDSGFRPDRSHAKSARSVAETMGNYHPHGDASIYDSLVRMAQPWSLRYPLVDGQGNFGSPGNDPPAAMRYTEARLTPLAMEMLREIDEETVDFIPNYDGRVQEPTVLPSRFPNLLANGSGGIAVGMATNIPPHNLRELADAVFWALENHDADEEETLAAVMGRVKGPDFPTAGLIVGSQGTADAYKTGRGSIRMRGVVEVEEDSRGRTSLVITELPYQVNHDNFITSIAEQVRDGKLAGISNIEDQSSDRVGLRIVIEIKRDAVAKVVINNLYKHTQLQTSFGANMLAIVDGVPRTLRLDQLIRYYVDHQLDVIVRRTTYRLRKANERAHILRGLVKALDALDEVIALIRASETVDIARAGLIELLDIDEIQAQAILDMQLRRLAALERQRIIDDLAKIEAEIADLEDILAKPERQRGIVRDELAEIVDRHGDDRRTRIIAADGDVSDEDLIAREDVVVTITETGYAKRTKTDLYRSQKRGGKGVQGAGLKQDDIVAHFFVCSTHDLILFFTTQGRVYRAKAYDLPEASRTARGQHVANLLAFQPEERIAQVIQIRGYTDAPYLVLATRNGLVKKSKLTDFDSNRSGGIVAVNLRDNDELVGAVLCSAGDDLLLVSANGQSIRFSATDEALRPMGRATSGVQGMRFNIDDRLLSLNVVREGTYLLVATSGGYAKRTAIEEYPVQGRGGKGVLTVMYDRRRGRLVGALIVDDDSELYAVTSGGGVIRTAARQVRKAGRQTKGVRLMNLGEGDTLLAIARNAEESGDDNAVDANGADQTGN
Chain of E. coli gyrase (P0AES4 whole entry, one chain of several): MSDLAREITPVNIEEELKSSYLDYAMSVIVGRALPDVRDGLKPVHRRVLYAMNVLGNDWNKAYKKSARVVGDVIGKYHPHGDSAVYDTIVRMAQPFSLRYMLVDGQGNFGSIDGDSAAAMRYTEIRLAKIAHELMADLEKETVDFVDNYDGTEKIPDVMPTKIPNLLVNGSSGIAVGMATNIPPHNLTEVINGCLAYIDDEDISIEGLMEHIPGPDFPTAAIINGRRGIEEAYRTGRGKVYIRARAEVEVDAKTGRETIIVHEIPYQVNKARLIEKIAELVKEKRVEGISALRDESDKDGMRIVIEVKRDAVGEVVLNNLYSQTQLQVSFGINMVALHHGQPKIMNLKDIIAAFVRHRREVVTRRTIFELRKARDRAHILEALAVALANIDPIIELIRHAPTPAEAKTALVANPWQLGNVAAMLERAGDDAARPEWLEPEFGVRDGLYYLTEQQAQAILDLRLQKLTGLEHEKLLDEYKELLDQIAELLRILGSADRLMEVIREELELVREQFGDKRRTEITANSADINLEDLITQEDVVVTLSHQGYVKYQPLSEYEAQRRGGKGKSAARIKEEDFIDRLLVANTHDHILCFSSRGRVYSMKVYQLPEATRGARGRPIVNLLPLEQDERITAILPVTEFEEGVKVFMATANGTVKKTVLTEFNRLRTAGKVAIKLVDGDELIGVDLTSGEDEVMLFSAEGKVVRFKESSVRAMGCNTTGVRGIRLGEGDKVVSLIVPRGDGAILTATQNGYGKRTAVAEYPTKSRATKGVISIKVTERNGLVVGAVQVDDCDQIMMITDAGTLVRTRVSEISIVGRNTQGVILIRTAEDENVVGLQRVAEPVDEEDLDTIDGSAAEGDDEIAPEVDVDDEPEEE
Chain of E. coli topo IV (P0AFI2 whole entry): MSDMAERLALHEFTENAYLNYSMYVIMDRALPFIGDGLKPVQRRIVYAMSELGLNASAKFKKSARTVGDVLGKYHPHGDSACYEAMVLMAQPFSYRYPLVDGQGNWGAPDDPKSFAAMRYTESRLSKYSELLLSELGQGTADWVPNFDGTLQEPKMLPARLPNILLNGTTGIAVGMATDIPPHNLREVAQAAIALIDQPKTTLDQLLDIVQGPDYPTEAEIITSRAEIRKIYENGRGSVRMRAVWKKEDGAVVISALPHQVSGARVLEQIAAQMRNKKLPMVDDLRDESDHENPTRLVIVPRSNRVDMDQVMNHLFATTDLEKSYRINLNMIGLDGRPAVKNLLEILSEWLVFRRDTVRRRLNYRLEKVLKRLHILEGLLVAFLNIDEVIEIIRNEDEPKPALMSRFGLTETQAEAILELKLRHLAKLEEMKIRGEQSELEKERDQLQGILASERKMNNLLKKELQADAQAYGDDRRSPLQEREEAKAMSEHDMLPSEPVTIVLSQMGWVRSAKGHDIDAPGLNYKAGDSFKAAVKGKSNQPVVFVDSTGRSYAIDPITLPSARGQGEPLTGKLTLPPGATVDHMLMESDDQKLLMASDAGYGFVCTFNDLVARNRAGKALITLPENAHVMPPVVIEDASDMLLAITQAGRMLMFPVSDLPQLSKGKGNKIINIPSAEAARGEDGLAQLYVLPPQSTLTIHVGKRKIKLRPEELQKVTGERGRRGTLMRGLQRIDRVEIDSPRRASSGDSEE
Chain of E. coli topo IV (P20083 whole entry): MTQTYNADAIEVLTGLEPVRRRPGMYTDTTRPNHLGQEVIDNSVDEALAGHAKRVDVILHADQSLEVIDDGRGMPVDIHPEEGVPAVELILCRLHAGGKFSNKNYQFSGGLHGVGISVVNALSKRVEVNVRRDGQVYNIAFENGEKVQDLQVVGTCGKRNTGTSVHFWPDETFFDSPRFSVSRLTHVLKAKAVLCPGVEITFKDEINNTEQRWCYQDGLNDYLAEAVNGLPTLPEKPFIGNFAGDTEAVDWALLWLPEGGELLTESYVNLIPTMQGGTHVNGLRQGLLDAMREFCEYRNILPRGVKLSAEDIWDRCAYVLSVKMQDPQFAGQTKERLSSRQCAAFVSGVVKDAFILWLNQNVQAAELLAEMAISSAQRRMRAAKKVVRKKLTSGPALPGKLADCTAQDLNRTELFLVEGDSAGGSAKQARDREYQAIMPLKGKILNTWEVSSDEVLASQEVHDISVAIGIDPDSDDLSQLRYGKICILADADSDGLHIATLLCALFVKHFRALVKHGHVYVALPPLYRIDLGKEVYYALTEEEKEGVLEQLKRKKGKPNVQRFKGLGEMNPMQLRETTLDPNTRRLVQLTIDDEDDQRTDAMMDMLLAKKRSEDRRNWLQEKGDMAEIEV

For `COc1c(N2C[C@@H]3CCCN[C@@H]3C2)c(F)cc2c(=O)c(C(=O)O)cn(C3CC3)c12` [moxifloxacin], on MtbGyrase, the “ATPase rate (Vmax)” value was 0.4 ± 0.1 molecules of ATP per second per enzyme.

As to bleomycin, the “MIC (before shift)” value in data set [1] is 0.06 µg/mL.

With `C[C@@H](O)[C@H](NC(=O)[C@H](Cc1c[nH]c2ccccc12)NC=O)C(=O)N[C@H](CCCNC(=N)N)C(=O)N[C@@H]1C(=O)N[C@@H](Cc2cncn2C)C(=O)N[C@H](C(=O)O)CC(=O)N[C@H](CO)C(=O)N[C@@H](Cc2ccccc2)C(=O)NCC(=O)N[C@H](CCCNC(=N)N)C(=O)N[C@@H](CO)C(=O)N[C@H](C(=O)O)CC(=O)O[C@@H]1C` [evybactin] (For-WT[dR]T[His(π-Me)][βAsp][dS]FG[dR]S[βAsp]; ester 4-C), the “toxicity against human cells” value in the data set on HepG2, with HEK293 and with FaDu was “no toxicity” throughout. Moreover, the “toxicity, survival” value in the data set on mouse is recorded as “no indications of toxicity”. In addition, in the data set with E. coli WO153, the “DNA synthesis (^14C-thymidine incorporation)” value is given as “inhibits DNA synthesis”. Besides, in the data set with E. coli WO153, the “RNA, protein and fatty acid synthesis (label incorporation)” value was “less of an effect”. The “DNA cleavage in the absence of ATP” value in data set [2] is reported as “little to no cleavage”. The DNA cleavage entry on E. coli topo IV and at E. coli gyrase was “stimulated DNA cleavage” each time. The “effect of vitamin B12 on evybactin susceptibility” value in [3] is “no change in the susceptibility”. In addition, the “activity against commensal bacteria” value in [4] is “no activity”. In addition, the “cell length versus non-treated cells” value in the data set on M. tuberculosis was “approximately two times longer”. The solubility (as a rule, how much of the substance goes into solution per volume) in “Solubility in water” was more than 40 mg/mL. In addition, the killing ability entry in data set [5] is listed as “highly bactericidal”. In addition, the “supercoiling activity and DNA cleavage” value in data set [6] is “inhibited the supercoiling activity”.
